In US20150119244A1, “AGRICULTURAL USES OF HYTd” (Agrinos AS, priority 2011, published 2015):

Test system: potatoes
Assay: Potato trial in soil infested with fungi, test vs Metam-Sodium (Example 4)
Excerpt: Three hundred liters of Metam Sodium was applied per hectare.

In the case of `CNC(=S)S` [Metam-Sodium], the Kilos (potatoes of size 1st) is reported as 0.32 Kilos, the Pieces (potatoes of size 1st) is reported as 1 and the Kilos (potatoes of size 4ta) is reported as 3.63 Kilos. The Pieces (potatoes of size 4ta) was 88, the Kilos (potatoes of size 2d) was 6.46 Kilos and the Pieces (potatoes of size 2d) was 35. For the same compound, the Kilos (potatoes of size 3d) was 2.67 Kilos, the Pieces (potatoes of size 3d) was 24 and the Kilos (potatoes of size GIANT) was 0.43 Kilos. For the same compound, the Pieces (potatoes of size GIANT) was 1, the Kilos (potatoes of size MONO) was 1.47 Kilos and the Pieces (potatoes of size MONO) was 6. It also gave a Kilos (potatoes, TOTAL of all sizes) of 15.0 Kilos and a Pieces (potatoes, TOTAL of all sizes) of 155.
